Measured values: patent US20060052369A1, “Compositions and methods relating to novel compounds and targets thereof” (The Regents of the University of Michigan, priority 2004, published 2006)
Read-outs that look alike come from different tables or passages of the source.

How the values were obtained:
[1] = molecular target: T1, ATPase of sub-mitochondrial particles (mitochondrial F1Fo-ATPase) (Bos taurus, UniProt P13621); assay: NADH-coupled ATP hydrolysis kinetics assay with sub-mitochondrial particles; format: biochemical, bovine; settings: for mechanism of inhibition: ATP hydrolysis
T1 construct: from tissue; host or cells: sub-mitochondrial particles (SMPs)
Procedure: The mechanism of inhibition for ATP hydrolysis induced by Bz-423 and derivatives of Bz-423 was assayed using an NADH-coupled assay. The ATP hydrolytic activity of the sub-mitochondrial particles (hereinafter SMPs) was measured by coupling the production of ADP to the oxidation of NADH via the pyruvate kinase and lactate dehydrogenase reaction. Briefly, ATP hydrolysis SMPs (0.8 mg; 7.14 μg/well) were added to hydrolysis buffer (100 mM Tris-HCl, pH 8.0 at 25° C., 4 mM MgCl2, […], 0.2 mM EDTA) and vortexed. 125 μL of this suspension was added to each well of a 96-well plate containing 50× drug or DMSO vehicle control (1% DMSO, final). The 96-well plate was then placed at 30° C. in a Molecular Devices Versamax tunable microplate reader and allowed to incubate for 5 min. During this 5 min, a substrate-coupling mixture was prepared (containing X mM ATP, 0.2 mM NADH, 1 mM phosphoenolpyruvate (PEP), 2 U/mL pyruvate kinase (PK), and 2 U/mL lactate dehydrogenase (LDH) in hydrolysis buffer). The rate of hydrolysis was assayed over a range of ATP concentrations (0.1-4.0 mM) at each [Bz]. 125 μL of the substrate-coupling mixture was added to each well, and the rate of NADH oxidation was monitored for 10 min at 340 nm, 30° C. The measured decrease in absorbance over time (in OD/min) was converted to μmol ATP hydrolyzed/min/mg SMP (ε=6220). The velocity data was plotted versus [ATP] for each concentration of [Bz] […] To obtain Ki values and confirm that an uncompetitive model of inhibition was the best fit for the data, three-dimensional fits of the velocity, [ATP], and [Bz] were performed to solve for Vmax, Km, Ki, and Ki* [where Ki indicates Bz binding to the ATPase with the third catalytic site empty (mixed-type inhibition only), and Ki* indicates binding when all three sites have substrate bound (uncompetitive and mixed-type inhibition)]. The following equations were used: Competitive Inhibition: Vo=Vmax[S]/((1+[I]/Ki)Km+[S]) Uncompetitive Inhibition: Vo=Vmax[S]/((1+[I]/Ki*)[S]+Km) Mixed or Noncompetitive Inhibition: Vo=Vmax[S]/((1+[I]/Ki)Km+(1+[I]Ki*)[S])
The results for the o-tert-Butyl derivative of Bz-423 are shown in Table 1 and confirm that this derivative binds the ATPase with an uncompetitive binding mechanism, similar to Bz-423.

[2] = system: rodents; settings: two daily doses; cited from earlier work
[3] = molecular target: F1Fo-ATPase (Homo sapiens, UniProt P05496); settings: cited from earlier work
[4] = Ki*, Uncompetitive Inhibition model fit, binding when all three sites have substrate bound
[5] = Ki, Competitive Inhibition model fit

Structure (SMILES)	mechanism of inhibition [1]	Ki [1, 4] [µM]	Ki [1, 5] [µM]	Ki ([1]; Non-competitive Inhibition model fit, binding when all three sites have substrate bound, read-out: Ki*) [µM]	effect on Km ([1]; secondary plots of [Bz] versus Km)	effect on Vmax ([1]; secondary plots of [Bz] versus Vmax)	LD50 [2] [mg/kg]	IC50 [3] [µM]
CN1C(=O)C(Cc2ccc3ccccc3c2)N=C(c2ccc(O)cc2)c2cc(Cl)ccc21 (centres unmarked) [Bz-423]	uncompetitive	19 ± 5.8	13.32 ± 0.1	–	–	–	–	–
CN1C(=O)C(Cc2ccc(OC(C)(C)C)cc2)N=C(c2ccc(O)cc2)c2cc(Cl)ccc21 (centres unmarked) [o-tert-Butyl]	uncompetitive	12.7 ± 1.1	9.35 ± 2.4	12.7 ± 1.1	decreased	decreased	–	–
CC[C@H]1/C=C/C=C/C[C@@H](C)[C@H](O)[C@@](C)(O)C(=O)[C@@H](C)[C@H](O)[C@@H](C)C(=O)[C@@H](C)[C@H](O)[C@@H](C)/C=C/C(=O)O[C@@H]2[C@H](C)[C@H](CC1)O[C@]1(CC[C@H](C)[C@H](C[C@@H](C)O)O1)[C@H]2C [oligomycin]	–	–	–	–	–	–	0.5	0.01
